Reference: patent US7517874B2 (priority 2007, dated 2009)

Experiments:
[1] = target: human CB1 receptor (hCB1) (Homo sapiens, UniProt P21554); assay: cell-based; format: cell-based; details: for +/− HCB1: agonist or inverse agonist at hCB1
In short: (§1)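 First, cells in IBMX-containing HEPES-buffered HBSS are raised to elevated cAMP with 2-8 μM NKH-477 for 30 min. Data are normalised to the forskolin and forskolin + 1 μM CP55,940 controls.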

[2] = target: T1, rat CB2 receptor (rCB2) (Rattus norvegicus, UniProt Q9QZN9); assay: cell-based; format: cell-based; details: for +/− RCB2: agonist or inverse agonist at rCB2
T1 sequence (Q9QZN9 1-360): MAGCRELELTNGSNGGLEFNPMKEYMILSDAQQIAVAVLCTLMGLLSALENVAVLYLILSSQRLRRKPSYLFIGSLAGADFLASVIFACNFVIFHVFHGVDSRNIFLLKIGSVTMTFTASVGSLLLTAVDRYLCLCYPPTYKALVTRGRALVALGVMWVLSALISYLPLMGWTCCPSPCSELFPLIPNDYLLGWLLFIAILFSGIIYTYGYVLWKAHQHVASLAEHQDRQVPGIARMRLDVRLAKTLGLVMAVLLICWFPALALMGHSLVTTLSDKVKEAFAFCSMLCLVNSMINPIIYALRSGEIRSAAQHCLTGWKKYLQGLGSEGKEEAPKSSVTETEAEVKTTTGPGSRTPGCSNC
In short: as §1

human CB1 receptor (hCB1), sequence (P21554 whole entry): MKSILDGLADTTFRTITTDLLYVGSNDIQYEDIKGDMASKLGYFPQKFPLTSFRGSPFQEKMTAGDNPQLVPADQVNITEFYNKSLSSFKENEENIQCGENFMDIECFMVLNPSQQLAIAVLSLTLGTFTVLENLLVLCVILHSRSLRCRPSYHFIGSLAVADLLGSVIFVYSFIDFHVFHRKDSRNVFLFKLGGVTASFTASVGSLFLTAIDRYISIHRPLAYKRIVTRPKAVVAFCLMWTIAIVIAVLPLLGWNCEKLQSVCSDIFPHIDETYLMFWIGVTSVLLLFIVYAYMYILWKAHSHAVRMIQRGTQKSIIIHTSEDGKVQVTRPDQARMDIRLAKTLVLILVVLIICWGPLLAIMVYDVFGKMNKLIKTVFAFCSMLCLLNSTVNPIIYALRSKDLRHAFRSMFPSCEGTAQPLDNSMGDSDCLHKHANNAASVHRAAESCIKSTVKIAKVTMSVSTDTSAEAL

In the case of `CCCCCc1nc(C(=O)N[C@H](C(=O)NC)C(C)(C)C)c2n1CCCN(C)C2` [Compound 484, (S)-N-(3,3-dimethyl-1-(methylamino)-1-oxobutan-2-yl)-8-methyl-3-pentyl-6,7,8,9-tetrahydro-5H-imidazo[1,5-a][1,4]diazepine-1-carboxamide], the EC50 [1] is reported as > 10 µM and the EC50 [2] is reported as > 10 µM.

In the case of `CCCc1nc(C(=O)N[C@H](C(=O)NC)C(C)(C)C)c2n1CCCN(C)C2` [Compound 485, (S)-N-(3,3-dimethyl-1-(methylamino)-1-oxobutan-2-yl)-8-methyl-3-propyl-6,7,8,9-tetrahydro-5H-imidazo[1,5-a][1,4]diazepine-1-carboxamide], the EC50 [1] is reported as > 10 µM and the “+/− RCB2” value [2] is reported as “+”.

With `CNC(=O)[C@@H](NC(=O)c1nc(CC(C)C)n2c1CN(C)CCC2)C(C)(C)C` [Compound 486, (S)-N-(3,3-dimethyl-1-(methylamino)-1-oxobutan-2-yl)-3-isobutyl-8-methyl-6,7,8,9-tetrahydro-5H-imidazo[1,5-a][1,4]diazepine-1-carboxamide] the EC50 [1] was > 10 µM and the “+/− RCB2” value [2] was “+”.

`CNC(=O)[C@@H](NC(=O)c1nc(C2CCCCC2)n2c1CN(C)CCC2)C(C)(C)C` [Compound 487, (S)-3-cyclohexyl-N-(3,3-dimethyl-1-(methylamino)-1-oxobutan-2-yl)-8-methyl-6,7,8,9-tetrahydro-5H-imidazo[1,5-a][1,4]diazepine-1-carboxamide] was tested, and the EC50 [1] was > 10 µM and the “+/− RCB2” value [2] was “+”.

In the case of `CNC(=O)[C@@H](NC(=O)c1nc(CCC(C)(C)C)n2c1CN(C)CCC2)C(C)(C)C` [Compound 488, (S)-N-(3,3-dimethyl-1-(methylamino)-1-oxobutan-2-yl)-3-(3,3-dimethylbutyl)-8-methyl-6,7,8,9-tetrahydro-5H-imidazo[1,5-a][1,4]diazepine-1-carboxamide], the EC50 [1] is reported as > 10 µM and the “+/− RCB2” value [2] is reported as “+”.

`CNC(=O)[C@@H](NC(=O)c1nc(CCCOC)n2c1CN(C)CCC2)C(C)(C)C` [Compound 489, (S)-N-(3,3-dimethyl-1-(methylamino)-1-oxobutan-2-yl)-3-(3-methoxypropyl)-8-methyl-6,7,8,9-tetrahydro-5H-imidazo[1,5-a][1,4]diazepine-1-carboxamide] was tested, and the EC50 [1] was > 10 µM and the “+/− RCB2” value [2] was “+”.

For `CNC(=O)[C@@H](NC(=O)c1nc(CCC2CC2)n2c1CN(C)CCC2)C(C)(C)C` [Compound 490, (S)-3-(2-cyclopropylethyl)-N-(3,3-dimethyl-1-(methylamino)-1-oxobutan-2-yl)-8-methyl-6,7,8,9-tetrahydro-5H-imidazo[1,5-a][1,4]diazepine-1-carboxamide], the EC50 [1] was > 10 µM and the “+/− RCB2” value [2] was “+”.

In the case of `CCCCCCc1nc(C(=O)N[C@H](C(=O)NC)C(C)(C)C)c2n1CCCN(C)C2` [Compound 491, (S)-N-(3,3-dimethyl-1-(methylamino)-1-oxobutan-2-yl)-3-hexyl-8-methyl-6,7,8,9-tetrahydro-5H-imidazo[1,5-a][1,4]diazepine-1-carboxamide], the EC50 [1] is reported as > 10 µM and the “+/− RCB2” value [2] is reported as “+”.

For `CCc1nc(C(=O)N[C@H](C(=O)NC)C(C)(C)C)c2n1CCCN(C)C2` [Compound 492, (S)-N-(3,3-dimethyl-1-(methylamino)-1-oxobutan-2-yl)-3-ethyl-8-methyl-6,7,8,9-tetrahydro-5H-imidazo[1,5-a][1,4]diazepine-1-carboxamide], the EC50 [1] was > 10 µM and the “+/− RCB2” value [2] was “−”.

`CNC(=O)[C@@H](NC(=O)c1nc(CCC2CCCCC2)n2c1CN(C)CCC2)C(C)(C)C` [Compound 493, (S)-3-(2-cyclohexylethyl)-N-(3,3-dimethyl-1-(methylamino)-1-oxobutan-2-yl)-8-methyl-6,7,8,9-tetrahydro-5H-imidazo[1,5-a][1,4]diazepine-1-carboxamide] was tested, and the EC50 [1] was > 10 µM and the “+/− RCB2” value [2] was “−”.

With `CNC(=O)[C@@H](NC(=O)c1nc(CCCC2CCCC2)n2c1CN(C)CCC2)C(C)(C)C` [Compound 494, (S)-3-(3-cyclopentylpropyl)-N-(3,3-dimethyl-1-(methylamino)-1-oxobutan-2-yl)-8-methyl-6,7,8,9-tetrahydro-5H-imidazo[1,5-a][1,4]diazepine-1-carboxamide] the EC50 [1] was > 10 µM and the “+/− RCB2” value [2] was “−”.

`CNC(=O)[C@@H](NC(=O)c1nc(CCc2ccsc2)n2c1CN(C)CCC2)C(C)(C)C` [Compound 495, (S)-N-(3,3-dimethyl-1-(methylamino)-1-oxobutan-2-yl)-8-methyl-3-(2-(thiophen-3-yl)ethyl)-6,7,8,9-tetrahydro-5H-imidazo[1,5-a][1,4]diazepine-1-carboxamide] was tested, and the EC50 [1] was > 10 µM and the “+/− RCB2” value [2] was “+”.

In the case of `CNC(=O)[C@@H](NC(=O)c1nc(C(C)C)n2c1CN(C)CCC2)C(C)(C)C` [Compound 496, (S)-N-(3,3-dimethyl-1-(methylamino)-1-oxobutan-2-yl)-3-isopropyl-8-methyl-6,7,8,9-tetrahydro-5H-imidazo[1,5-a][1,4]diazepine-1-carboxamide], the EC50 [1] is reported as > 10 µM and the “+/− RCB2” value [2] is reported as “+”.

In the case of `CNC(=O)[C@@H](NC(=O)c1nc(C2CCCCCC2)n2c1CN(C)CCC2)C(C)(C)C` [Compound 498, (S)-3-cycloheptyl-N-(3,3-dimethyl-1-(methylamino)-1-oxobutan-2-yl)-8-methyl-6,7,8,9-tetrahydro-5H-imidazo[1,5-a][1,4]diazepine-1-carboxamide], the “+/− HCB1” value [1] is reported as “+” and the “+/− RCB2” value [2] is reported as “+”.

`CNC(=O)[C@@H](NC(=O)c1nc(C2CCC(C)CC2)n2c1CN(C)CCC2)C(C)(C)C` (stereo partly drawn) [Compound 499, (S)-N-(3,3-dimethyl-1-(methylamino)-1-oxobutan-2-yl)-8-methyl-3-(4-methylcyclohexyl)-6,7,8,9-tetrahydro-5H-imidazo[1,5-a][1,4]diazepine-1-carboxamide] was tested, and the EC50 [1] was > 10 µM and the “+/− RCB2” value [2] was “+”.

`CNC(=O)[C@@H](NC(=O)c1nc(CCCN2CCOCC2)n2c1CN(C)CCC2)C(C)(C)C` [Compound 500, (S)-N-(3,3-dimethyl-1-(methylamino)-1-oxobutan-2-yl)-8-methyl-3-(3-morpholinopropyl)-6,7,8,9-tetrahydro-5H-imidazo[1,5-a][1,4]diazepine-1-carboxamide] was tested, and the EC50 [1] was > 10 µM and the EC50 [2] was > 10 µM.

In the case of `CNC(=O)[C@@H](NC(=O)c1nc(CCCN2CCCCC2)n2c1CN(C)CCC2)C(C)(C)C` [Compound 501, (S)-N-(3,3-dimethyl-1-(methylamino)-1-oxobutan-2-yl)-8-methyl-3-(3-(piperidin-1-yl)propyl)-6,7,8,9-tetrahydro-5H-imidazo[1,5-a][1,4]diazepine-1-carboxamide], the EC50 [1] is reported as > 10 µM and the “+/− RCB2” value [2] is reported as “+”.

For `CNC(=O)[C@@H](NC(=O)c1nc(CCCN2CCCC2)n2c1CN(C)CCC2)C(C)(C)C` [Compound 502, (S)-N-(3,3-dimethyl-1-(methylamino)-1-oxobutan-2-yl)-8-methyl-3-(3-(pyrrolidin-1-yl)propyl)-6,7,8,9-tetrahydro-5H-imidazo[1,5-a][1,4]diazepine-1-carboxamide], the EC50 [1] was > 10 µM and the “+/− RCB2” value [2] was “+”.

With `CNC(=O)[C@@H](NC(=O)c1nc(C2CCNCC2)n2c1CN(C)CCC2)C(C)(C)C` [Compound 503] the “+/− HCB1” value [1] was “+” and the “+/− RCB2” value [2] was “+”.

With `CNC(=O)[C@@H](NC(=O)c1nc(C2CCCCO2)n2c1CN(C)CCC2)C(C)(C)C` (stereo partly drawn) [Compound 504, N-((S)-3,3-dimethyl-1-(methylamino)-1-oxobutan-2-yl)-8-methyl-3-(tetrahydro-2H-pyran-2-yl)-6,7,8,9-tetrahydro-5H-imidazo[1,5-a][1,4]diazepine-1-carboxamide] the EC50 [1] was > 10 µM and the “+/− RCB2” value [2] was “+”.
